Results published in PubChem BioAssay (NCI).
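Briefly, cells in 96-well plates were exposed to five compound concentrations for 48 h, and endpoints were estimated by linear interpolation. At the GI50, growth is halved. TGI: total growth inhibition.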

Columns and labels:
Assay in all cases: inhibition of tumour cell growth, NCI panel, 48 h
[1] = tested on: OVCAR-4 ovarian
[2] = tested on: T-47D breast
[3] = tested on: SK-OV-3 ovarian
[4] = tested on: MDA-N
[5] = tested on: HOP-62 NSCLC
[6] = tested on: A549 NSCLC
[7] = tested on: ACHN renal
[8] = tested on: U251 CNS
[9] = tested on: EKVX NSCLC
[10] = tested on: SR leukemia

Row | SMILES | TGI [1] | TGI [2] | TGI [3] | TGI [4] | TGI [5] | TGI [6] | TGI [7] | TGI [8] | TGI [9] | TGI [10] | GI50 [4] | GI50 [10]
1 | O=C(O)C(=O)/C=C(\O)c1ccc(Br)cc1 | > 100 µM | > 100 µM | > 100 µM | > 100 µM | > 100 µM | > 100 µM | > 100 µM | > 100 µM | 82.1 µM |  |  | 
2 | CCOc1ccc2c(c1)c(=O)c1c(NCCN(CC)CC)ccc3nnn2c31 | 26.3 µM | > 100 µM | > 100 µM | 35.7 µM | > 48.8 µM | > 55.5 µM | > 56.1 µM | > 58.2 µM | > 100 µM | 50.1 µM |  | 
3 | [N-]=[N+]=C(C(=O)N1CCCC1=O)S(=O)(=O)c1ccccc1 |  |  |  | > 100 µM | > 100 µM | > 100 µM | > 100 µM | > 100 µM | > 100 µM | > 100 µM |  | 
4 | O=C1C(=Cc2ccc(Cl)c(Cl)c2)C([O-])=C([P+](c2ccccc2)(c2ccccc2)c2ccccc2)C([O-])=C1[P+](c1ccccc1)(c1ccccc1)c1ccccc1 | 10.4 µM | 15.7 µM | 4.48 µM | 3.77 µM | 7.8 µM | 10.4 µM | 9.26 µM | 6.29 µM | 6.64 µM | 11.6 µM |  | 
5 | COc1ccc(Nc2nc(N)c(C(=O)c3cccs3)s2)cc1 | 48.1 µM | > 64.1 µM | > 100 µM | > 82.4 µM | > 67.7 µM | > 47.8 µM | > 100 µM | > 100 µM | > 75 µM | 5.88 µM |  | 
6 | CC1=C(C)C(=O)C(C2=CC(=O)C=CC2=O)=C(C2=CC(=O)C=CC2=O)C1=O | 51.3 µM | 77.5 µM | > 100 µM | > 59.3 µM | > 100 µM | > 100 µM | > 100 µM | > 77.5 µM | > 100 µM |  |  | 
7 | N#CC(C#N)=C1C(=O)NC(N)=C1C#N | > 100 µM | > 100 µM | > 100 µM | > 100 µM | > 100 µM | > 100 µM | > 100 µM | > 100 µM | > 100 µM |  |  | 
8 | OC1C[C@H](c2ccccc2)C2(C(O)c3ccccc3C2O)[C@@H](c2ccccc2)C1 (some centres not stated) | > 100 µM | > 100 µM | > 100 µM | > 100 µM | > 100 µM | > 100 µM | > 100 µM | > 100 µM | > 100 µM | 68.1 µM |  | 
9 | [N-]=[N+]=Nc1c([N+](=O)[O-])c(=O)n2c3c(cccc13)CCC2 | 27 µM | 26.3 µM | > 100 µM | 27.9 µM | > 100 µM | > 84.5 µM | 31.8 µM | 34.7 µM | 41.8 µM | 5.9 µM |  | 
10 | S=c1[nH]c2ccc(I)cc2c(=S)n1Cc1ccccc1 | > 100 µM | 5.5 µM | > 100 µM | 56.9 µM | 22.8 µM | > 100 µM | 58.7 µM | 12.9 µM | 23.7 µM | 14.9 µM |  | 
11 | CNc1ncnc2c1cnn2Cc1cn(COCC(O)CO)nn1 (configuration not stated) | > 100 µM | > 100 µM | > 100 µM | > 100 µM | > 100 µM | > 100 µM | > 100 µM | > 100 µM | > 100 µM |  |  | 
12 | CCOC(=O)N1CCC(=C2c3ccc(Cl)cc3CCc3cccnc32)CC1 | 17.1 µM | 35 µM | 29.1 µM | 16.8 µM | 36.3 µM | > 100 µM | 15.8 µM |  | 28.1 µM | 14.2 µM |  | 
13 | NC1CC=C(COC(=O)C(O)(c2ccccc2)C2CC2)CC1 (configuration not stated) |  | > 100 µM | > 100 µM | > 100 µM | > 100 µM | > 100 µM | > 100 µM | > 100 µM | > 100 µM | > 100 µM |  | 
14 | CCN1CCC(O)(/C=C/c2ccc(C(C)C)cc2)C(C(=O)/C=C/c2ccc(C(C)C)cc2)C1 (configuration not stated) | 8.71 µM | 6.19 µM | 31.8 µM | 5 µM | 13.3 µM | 11.5 µM | 3.31 µM | 7.32 µM | 5.74 µM | > 20.9 µM |  | 
15 | O=C(CSc1nc2ccccc2c(=O)n1-c1ccccc1)N=Nc1c(O)[nH]c2ccc(F)cc12 | 4.34 µM | 3.97 µM | 3.75 µM | 14 µM | 6.77 µM | 21.6 µM |  | > 100 µM | 5.57 µM | 4.21 µM |  | 
16 | CCCCCCCCCCCCCC(=O)N(CCCCCCCCC)CC(O)C(O)C(OC1OC(CO)C(O)C(O)C1O)C(O)CO (configuration not stated) | 46.6 µM | 39.7 µM | 30.8 µM | 38.1 µM | 47.4 µM | 50.5 µM | 30.5 µM | 38.6 µM | 34.5 µM | 46.2 µM |  | 
17 | Cc1cn(S(=O)(=O)c2ccccc2)c2c(OCc3ccccc3)cc(NS(C)(=O)=O)cc12 | > 100 µM | 39.4 µM | > 100 µM | > 100 µM | > 100 µM | > 100 µM | > 100 µM | > 65.7 µM | > 44.6 µM | > 100 µM |  | 
18 | NC(N)=NCCCC(NC(=O)OCCCCn1ccc(N)nc1=O)C(=O)O (configuration not stated) | > 100 µM | > 100 µM | > 100 µM | > 100 µM | > 100 µM | > 100 µM | > 100 µM | > 100 µM | > 100 µM | > 100 µM |  | 
19 | O=C(O)CCC(NC(=O)c1ccc(Nc2nc3cc(C(F)(F)F)ccc3nc2C(=O)O)cc1)C(=O)O (configuration not stated) |  | > 100 µM |  | > 100 µM | > 100 µM | > 100 µM | > 100 µM | > 100 µM | > 100 µM | > 100 µM |  | 
20 | CCC(NC1=NCCO1)c1cccs1 (configuration not stated) | 44.5 µM | 37 µM | 27.3 µM | 27.7 µM |  | 28.1 µM | 29.4 µM | 26.3 µM | 31.1 µM | > 100 µM |  | 
21 | Brc1ccc2c(-c3csc(-c4c[nH]c5ccccc45)n3)c[nH]c2c1 | 39.8 µM | 66.4 µM | 44.8 µM | 39.8 µM | 30.8 µM | 29.2 µM | 32.1 µM | 31.7 µM | 36.1 µM | 21.7 µM | 19.2 µM | 6.36 µM
22 | CC(=O)Nc1ccccc1NC1CC(C)N(c2ccccc2)N1C(C)=O (configuration not stated) | > 10 µM | > 10 µM | > 10 µM | > 10 µM | > 10 µM | > 10 µM |  |  | > 10 µM | > 10 µM |  | 
